# Measured values: US20120208776A1 (priority 2002, published 2012)
# Where “and” joins values, the source holds several entries; their conditions need not be identical. Equal entries are not always repeated. Where two headings read alike, the source gives them in different places.
# What was measured:
# [1] = system: rat liver mRNAs; format: in vivo, Sprague-Dawley rats; details: 35.7 mg/kg
# Source text: Total RNA was isolated using Trizol (Invitrogen, CA), and purified with the RNeasy Kit (Qiagen, CA). mRNA sequences were obtained from the public GeneBank database (www.ncbi.nlm.nih.gov), and primers were designed using Primer3 software from The Massachusetts Institute of Technology (frodo.wi.mit.edu/cgi-bin/primer3/primer3_www.cgi).
# [2] = molecular target: T1, Na^+-K^+-ATPase; experiment: Enzymatic assay of adenosine 5′-triphosphatase; format: biochemical; details: read-out: IC50 (50% inhibition of Na^+-K^+-ATPase activity); purified enzyme, in vitro
# T1 construct: Combination index; actein (μM); Combination index; actein; ATPase activity; other: actein 0.8 μM alone; other: digitox
# Method: Enzymatic assay of adenosine 5′-triphosphatase. The enzymatic assay of ATPase (adenosine 5′-triphosphatase, EC 3.6.1.3) followed the Sigma Prod. […] [P] was determined by the Taussky-Shorr method.
# [3] = system: BT474 cells; experiment: Cell proliferation, cell count (Coulter Counter); format: cell-based; details: Homo sapiens
# [4] = system: MDA-MB-453 cells; experiment: Western-blot analysis; format: cell-based, human; details: for IκB band intensity relative to β-actin / IκκB band intensity relative to β-actin / PPAR-γ band intensity relative to β-actin / p-Her2 level (WB) / cyclin D1 band intensity relative to β-actin: MDA-MB-453; for increase in level of p-Src: serum-starved MDA-MB-453, 80 μg/ml, 30 min
# Method: Cells were treated for increasing times with approximately the IC50 concentration, or twice the IC50 concentration, of actein. The cells were harvested, washed with PBS, and sonicated in extraction buffer according to the procedure of Han et al. (Han et al., Stable overexpression of cyclin D1 in a human mammary epithelial cell line prolongs the S-phase, and inhibits growth. Oncogene, 10:953-61, 1995). The lysates were subjected to electrophoresis on a 10% or 12.5% SDS-polyacrylamide gel, and then transferred to a polyvinylidene difluoride (PVDF) membrane. The membrane was blocked with milk protein, and incubated with a solution containing the primary antibody against the following: cyclin D1 (Upstate Biotechnology, Lake Placid, N.Y.), p21^cip1 (Oncogene Research Products, Darmstadt, Germany), ppRb (ser 780, Medical and Biological Laboratories, Nagoya, Japan), cdk4 (Upstate Biotechnology, Lake Placid, N.Y.), EGFR (clone-74, Transduction Laboratories, Lexington, Ky.), p-EGFR (phospho (Y1173)-EGFR) (Cell Signaling, Beverly, Mass.), actin (Sigma, St. Louis, Mo.), Her-2/neu (Cell Signaling, Beverly, Mass.), or phospho-(Y1248)-Her-2/neu (Cell Signaling, Beverly, Mass.)), IκB (Sant Cruz Biotechnolgy, Santa Cruz, Calif.), IκκB (Sigma, St. Louis, Mo.) and PPARγ (Santa Cruz biotechnology, Santa Cruz, Calif.) (Masuda et al., Epigallocatechin-3-gallate inhibits activation of HER-2/neu and downstream signaling pathways in human head and neck and breast carcinoma cells. Clin. Cancer Res., 9: 3486-91, 2003). The membrane was washed, and incubated with horseradish peroxidase conjugated secondary antibody.
# Protein bands were visualized with the ECL-enhanced chemiluminescence system, according to the manufacturer's directions (Amersham Pharmacia Biotech) (Sgambato et al., Overexpression of p27 (Kip1) inhibits the growth of both normal and transformed human mammary epithelial cells. Cancer Research, 58:3448-54, 1998). The staining intensities of the visualized blots were quantified using NIH image software. For each protein, the relative band intensities were determined by comparing treated samples with untreated controls. These values were then normalized, using β-actin as an internal control.
# Western blot analysis. […] To assay activation of p-Src, cells were allowed to attach for 24 h, incubated in media without serum for 24 h; the medium was replaced with media without serum with DMSO, actein or digtioxin.
# Western blot analysis was performed as previously described. […] The membrane was incubated with the primary antibodies, cyclin D1 (Santa Cruz Biotechnology; Santa Cruz, Calif.), p-Src, Akt, p-Akt, ERK2 or p-Erk2 (Cell signaling, Beverly, Mass.); β-actin was used as a loading control.
# Western blot analysis was performed as described previously.
# [5] = system: NF-κB promoter; experiment: NF-κB reporter assay (luciferase); format: cell-based, human; details: MDA-MB-453, 24 h
# Method: The cyclin D1 promoter luciferase reporter plasmid, 1745CD1LUC, was prepared by Dr. R. Pestell (Albert Einstein Cancer Center, New York, N.Y.). The method used for transient transfection reporter assays was previously described (Soh et al., Novel roles of specific isoforms of protein kinase C in activation of the c-fos serum response element. Molecular and Cellular Biology, 19:1313-24, 1999). Using lipofectin, triplicate samples of MDA-MB-453 breast cancer cells (1×10^5 cells in 35-mm plates) were co-transfected using DNA of the indicated reporter plasmid (1 μg) and the β-gal plasmid as an internal control (10 μg of the pCMV-b-gal plasmid) in opti-MEM 1 medium (Life Technologies, Inc.). After 24 h, the medium was replaced with serum-free medium containing the indicated concentrations of actein. After 24 h, cells were harvested, and luciferase activity was determined with the luciferase assay system (Promega Corp. Madison, Wis.); β-gal activities were determined with the β-gal enzyme assay system (Promega). Luciferase activities were normalized to β-gal activities, to correct for differences in transfection efficiency.
# NF-κB reporter assay. The NE-κB promoter luciferase reporter plasmid was from Dr. Jae Won Soh. The method for transient transfection reporter assays was as previously described.
smiles,measurement,setting,value
CC(=O)O[C@@H]1C[C@@]23C[C@@]24CC[C@H](O[C@@H]2OC[C@@H](O)[C@H](O)[C@H]2O)C(C)(C)[C@@H]4CC[C@H]3[C@]2(C)C[C@@H]3O[C@]4(C[C@@H](C)[C@@H]3[C@@]12C)O[C@H](O)[C@@]1(C)O[C@@H]41 [actein],"Fold-change relative to control, BZRP, RT-PCR",[1]; 6 h,0.07
same,"Fold-change relative to control, CCND1, RT-PCR",[1]; 6 h,0.52
same,"Fold-change relative to control, HMGCR, RT-PCR",[1]; 6 h,−0.45
same,"Fold-change relative to control, HMGCS1, RT-PCR",[1]; 6 h,−0.82
same,"Fold-change relative to control, HSD17B7, RT-PCR",[1]; 6 h,−0.66
same,"Fold-change relative to control, ID3, RT-PCR",[1]; 6 h,0.30
same,"Fold-change relative to control, NQO1, RT-PCR",[1]; 6 h,−0.50
same,"Fold-change relative to control, S100A9, RT-PCR",[1]; 6 h,−0.36
same,"Fold-change relative to control, BZRP, RT-PCR",[1]; 24 h,1.13
same,"Fold-change relative to control, CCND1, RT-PCR",[1]; 24 h,−2.32
same,"Fold-change relative to control, HMGCR, RT-PCR",[1]; 24 h,0.45
same,"Fold-change relative to control, HMGCS1, RT-PCR",[1]; 24 h,1.44
same,"Fold-change relative to control, HSD17B7, RT-PCR",[1]; 24 h,1.21
same,"Fold-change relative to control, ID3, RT-PCR",[1]; 24 h,−1.52
same,"Fold-change relative to control, NQO1, RT-PCR",[1]; 24 h,1.73
same,"Fold-change relative to control, S100A9, RT-PCR",[1]; 24 h,2.92
same,IC50,[2],11.2 µM and 16 µM
same,IC50,"[3]; BT-474, BT474, unit inferred, read-out: IC50",23.6 µM
same,IκB band intensity relative to β-actin,"[4]; 3 h, 20 μg/ml",1.2 fold
same,IκκB band intensity relative to β-actin,"[4]; 3 h, 20 μg/ml",1.79 fold
same,PPAR-γ band intensity relative to β-actin,"[4]; 3 h, 20 μg/ml",1.39 fold
same,p-Her2 level (WB),"[4]; 3 h, 20 μg/ml",0.71 fold
same,IκB band intensity relative to β-actin,"[4]; 3 h, 40 μg/ml",1.09 fold
same,IκκB band intensity relative to β-actin,"[4]; 3 h, 40 μg/ml",1.78 fold
same,PPAR-γ band intensity relative to β-actin,"[4]; 3 h, 40 μg/ml",0.93 fold and 0.92 fold
same,cyclin D1 band intensity relative to β-actin,"[4]; 3 h, 40 μg/ml",0.93 fold
same,p-Her2 level (WB),"[4]; 3 h, 40 μg/ml",0.86 fold
same,IκκB band intensity relative to β-actin,"[4]; 10 h, 20 μg/ml",0.48 fold
same,IκκB band intensity relative to β-actin,"[4]; 10 h, 40 μg/ml",0.59 fold
same,IκB band intensity relative to β-actin,"[4]; 24 h, 20 μg/ml",0.81 fold
same,IκκB band intensity relative to β-actin,"[4]; 24 h, 20 μg/ml",1.06 fold
same,PPAR-γ band intensity relative to β-actin,"[4]; 24 h, 20 μg/ml",1.3 fold
same,cyclin D1 band intensity relative to β-actin,"[4]; 24 h, 20 μg/ml",1.3 fold
same,p-Her2 level (WB),"[4]; 24 h, 20 μg/ml",0.81 fold
same,IκB band intensity relative to β-actin,"[4]; 24 h, 40 μg/ml",0.53 fold
same,IκκB band intensity relative to β-actin,"[4]; 24 h, 40 μg/ml",0.95 fold
same,PPAR-γ band intensity relative to β-actin,"[4]; 24 h, 40 μg/ml",0.67 fold
same,cyclin D1 band intensity relative to β-actin,"[4]; 24 h, 40 μg/ml",0.44 fold
same,p-Her2 level (WB),"[4]; 24 h, 40 μg/ml",0.53 fold
same,increase in level of p-Src,[4],1.5 fold
same,NF-kB promoter activity,[5]; 20 μg/ml,1.59 fold
same,NF-kB promoter activity,[5]; 40 μg/ml,0.12 fold
C[C@H]1O[C@@H](O[C@H]2[C@@H](O)C[C@H](O[C@H]3[C@@H](O)C[C@H](O[C@H]4CC[C@@]5(C)[C@H](CC[C@@H]6[C@@H]5CC[C@]5(C)[C@@H](C7=CC(=O)OC7)CC[C@]65O)C4)O[C@@H]3C)O[C@@H]2C)C[C@H](O)[C@@H]1O [digitoxin],IC50,[2],0.8 µM
same,IC50,"[3]; BT-474, BT474, Coulter counter",0.03 µg/mL and 40 nM
same,IC50,"[3]; BT-474, BT474, unit inferred",0.039 µM
same,increase in level of p-Src,[4],1.5 fold
